Experimental data from patent publication US9636417B2, “Mucosal membrane receptor and uses thereof” (Universiteit Gent, priority 2008, dated 2017).
Entries after “also recorded” stand apart in the source; their conditions may differ.

Assays:
BBMV of F4R+ pigs = test: F4 binding to BBMV after glycosidase or periodate treatment; parameters: species or system pig
Experimental: To remove sialic acid from the pAPN, 2 mg/ml BBMV from F4R+ pigs were incubated with soluble neuraminidase from Arthrobacter urefaciens (Calbiochem, specific for α2-3,6,8,9 linked sialic acid) for 3 hours at 37° C. according to the manufacturer's instructions. Fetuin, a sialic acid containing protein was used as a positive control and the buffer in which the neuraminidase was provided, was used as a negative control. Brush border membrane vesicles from F4R+ pigs were treated with N-glycosidase F (NEB, Beverly, Mass.) or with endoglycosidase H (NEB Beverly, Mass.) according to the manufacturer's instructions to remove all N-glycans (high mannose and complex, sialic acid containing glycans) or N-glycans of the high mannose type, respectively. RNAse B was used as a positive control and the buffer in which the enzyme was provided, was used as a negative control.
Brush border membrane vesicles from F4R+ pigs were treated with variable concentrations of NaIO4 (Sigma-Aldrich Chemie GmbH, Steinheim, Germany) in 50 mM sodiumacetate, pH 4.5, at 37° C. in the dark. Reactions were stopped by the addition of ethylene glycol to a final concentration of 20 mM. Brush border membrane vesicles from F4R− pigs were treated with the same […] and were used as a negative control.

pAPN-BHK-21 cells = test: Endocytosis assay (confocal microscopy) of FLUOS-labeled-F4 with chemical inhibitors; format: cell-based, porcine; details: for effect on F4 internalization in pAPN-BHK cells: different concentrations, inhibitor added 30 min before FLUOS-labeled-F4
Experimental: Cells were then washed with PBS supplemented with 0.1 mM CaCl2 and 1 mM MgCl2 (PBS+) to remove unbound FLUOS-labeled-F4 and shifted to 37° C. to start endocytosis. After different time intervals, cells were fixed with 3% paraformaldehyde (PF), permeabilized with 0.1% Triton X-100 and stained with 200 nM phalloidin-Texas Red (Molecular Probes, Eugene, Oreg., USA) in PBS+ for 1 h at 37° C. To analyze the effect of different inhibitors on endocytosis, cells were incubated with different concentrations of each inhibitor (Table 1). Inhibitors were added 30 min before incubation with FLUOS-labeled-F4 (25 μg). Cells were fixed with 3% PF at the indicated times. For each concentration of the chemical inhibitors, the viability of the cells was analyzed by flow cytometry after the addition of 10 μg propidium iodide (Molecular Probes, Eugene, Oreg., USA). The number of vesicles internalized in the cells was counted using confocal microscopy. Confocal images were acquired using a Leica TCS SP2 laser scanning spectrum confocal system (Leica Microsystems), using an argon 488-nm laser line and a […] 543-nm laser line to excite FITC and Texas Red respectively. Images were merged using Leica confocal software.

[1] = biological target: T1, F4R on brush border membrane vesicles (BBMV) (Sus scrofa, UniProt P15145); test: biochemical; format: binding, pig; details: read-out: inhibition of adhesion of F4R+ BBMV to F4ac
T1 construct: Brush border membrane vesicles (BBMV) of the small intestine were prepared from the F4R+ and F4R− pigs; from tissue; host or cells: pig jejunum: enterocyte preparations, BBMV, ligated jejunal loops
T1 sequence (P15145 2-963): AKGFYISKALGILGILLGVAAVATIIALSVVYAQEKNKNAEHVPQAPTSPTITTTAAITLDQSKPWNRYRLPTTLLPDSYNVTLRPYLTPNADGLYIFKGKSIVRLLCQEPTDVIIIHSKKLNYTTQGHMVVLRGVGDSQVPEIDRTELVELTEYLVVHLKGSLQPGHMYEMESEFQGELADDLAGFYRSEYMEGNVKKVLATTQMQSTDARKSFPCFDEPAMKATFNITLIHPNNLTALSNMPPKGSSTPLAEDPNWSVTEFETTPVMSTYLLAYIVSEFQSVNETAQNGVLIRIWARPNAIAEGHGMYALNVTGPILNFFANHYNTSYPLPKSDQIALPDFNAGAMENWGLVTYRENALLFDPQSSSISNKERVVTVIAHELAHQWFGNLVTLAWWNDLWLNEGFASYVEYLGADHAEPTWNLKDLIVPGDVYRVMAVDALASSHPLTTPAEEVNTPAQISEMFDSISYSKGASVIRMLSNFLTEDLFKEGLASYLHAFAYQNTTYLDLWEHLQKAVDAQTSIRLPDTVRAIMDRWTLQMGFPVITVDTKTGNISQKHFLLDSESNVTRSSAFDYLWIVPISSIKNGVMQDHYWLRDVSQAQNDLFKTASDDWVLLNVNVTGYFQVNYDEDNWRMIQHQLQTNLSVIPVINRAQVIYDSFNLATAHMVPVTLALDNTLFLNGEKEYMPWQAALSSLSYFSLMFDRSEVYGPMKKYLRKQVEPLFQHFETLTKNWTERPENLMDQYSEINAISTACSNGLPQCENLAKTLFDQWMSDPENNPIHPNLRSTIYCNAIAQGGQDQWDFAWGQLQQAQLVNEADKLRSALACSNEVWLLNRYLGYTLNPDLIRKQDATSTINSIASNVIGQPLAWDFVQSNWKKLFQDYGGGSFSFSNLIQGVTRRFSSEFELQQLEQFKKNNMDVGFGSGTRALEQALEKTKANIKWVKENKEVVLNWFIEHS
Experimental: Brush border membrane vesicles (BBMV) of the small intestine were prepared from the F4R+ and F4R− pigs by the method of Kessler (1978) with a slight modification. Enterocytes were washed twice in PBS with 0.1 mM PMSF and were resuspended in Tris-HCl buffer (2 mM, pH 7.2) containing 50 mM mannitol in ratio 3:1 (vol/vol) whereafter cells were homogenized for 2 min with an Ultra Turrax (Janke & Kunkel, I K A Labortechnik, Staufen, Germany). Subsequently, CaCl2 was added to the homogenate to a final concentration of 10 mM and placed on ice for 15 min. Then the homogenate was centrifugated at 27,000×g for 30 min and washed with Tris buffer (pH 7.5) containing 50 mM mannitol and 10 mM HEPES and centrifuged again. The pellet was resuspended in the same buffer and used for the study. The protein concentration of the obtained BBMV was determined using the bicinchoninic acid (BCA) reaction with bovine serum albumin (BSA) as standard (ICN Biomedicals, Belgium).
The interaction between the F4ac fimbriae and BBMV or enterocytes of F4R+ and F4R− pigs was analyzed with the BIAcore®2000 biosensor (Uppsala, Sweden) using the CM3 chip. […]

F4R on enterocytes = biological target: T2, F4R on enterocytes (Sus scrofa, UniProt P15145); test: biochemical; format: binding, pig; details: read-out: inhibition of adhesion of F4R+ enterocytes to F4ac
T2 construct: Brush border membrane vesicles (BBMV) of the small intestine were prepared from the F4R+ and F4R− pigs; from tissue; host or cells: pig jejunum: enterocyte preparations, BBMV, ligated jejunal loops
T2 sequence (P15145 2-963): T1 sequence (P15145 2-963)
Experimental: The interaction between the F4ac fimbriae and BBMV or enterocytes of F4R+ and F4R− pigs was analyzed with the BIAcore®2000 biosensor (Uppsala, Sweden) using the CM3 chip. This has a short carboxymethyldextran surface to allow immobilization of F4 fimbriae via free NH2-groups using an amine-coupling kit (Biacore, Uppsala, Sweden) containing N-hydroxysuccinimide (NHS), N-ethyl-N′-[(3-dimethylamino)-propyl]-carbodiimide hydrochloride (EDC) and ethanolamine-HCl. Hereto, 100 μl of a mixture of NHS:EDC (1:1) was injected at a flow rate of 10 μl/min at 25° to activate the dextran matrix on the sensor chip, followed by F4ac at a concentration of 100 μg/ml in 0.1 M glycine buffer pH 2.3 until the amount (mol) of immobilized F4 equilized more than 500 resonance units (RU). […] Subsequently, the remaining active sites of the matrix were blocked with 1 M ethanolamine-HCl and washed with HBS-N (0.01 M HEPES, 0.15 M NaCl). […] All samples used in further experiments were diluted in HBS-N buffer, which also served as running buffer during the experiments.
The first approach was to pre-incubate the F4R+ and F4R− enterocytes or BBMV with 0, 50 and 100 μg/ml F4ac fimbriae, while gently shaking. After 1 h pre-incubation at room temperature, a gentle short spin centrifugation was performed. […]

[2] = test system: wheat germ agglutinin (WGA); test: SPR specificity control: bestatin pre-incubated BBMV and enterocytes on immobilized WGA; format: binding; details: bestatin 0 mM, 1 mM and 10 mM; F4R+ pigs
Experimental: The interaction between the F4ac fimbriae and BBMV or enterocytes of F4R+ and F4R− pigs was analyzed with the BIAcore®2000 biosensor (Uppsala, Sweden) using the CM3 chip. This has a short carboxymethyldextran surface to allow immobilization of F4 fimbriae via free NH2-groups using an amine-coupling kit (Biacore, Uppsala, Sweden) containing N-hydroxysuccinimide (NHS), N-ethyl-N′-[(3-dimethylamino)-propyl]-carbodiimide hydrochloride (EDC) and ethanolamine-HCl. Hereto, 100 μl of a mixture of NHS:EDC (1:1) was injected at a flow rate of 10 μl/min at 25° to activate the dextran matrix on the sensor chip, followed by F4ac at a concentration of 100 μg/ml in 0.1 M glycine buffer pH 2.3 until the amount (mol) of immobilized F4 equilized more than 500 resonance units (RU). Thousand RU corresponds to a change in the surface concentration of 1 ng/mm2 (Stenberg 1991). Subsequently, the remaining active sites of the matrix were blocked with 1 M ethanolamine-HCl and washed with HBS-N (0.01 M HEPES, 0.15 M NaCl). […] All samples used in further experiments were diluted in HBS-N buffer, which also served as running buffer during the experiments.
To check the specificity of blocking of bestatin, F4R+ and F4R− enterocytes or BBMV were pre-incubated with 0, 1 mM and 10 mM bestatin, while gently shaking for 1 hour at room temperature and injected in the WGA coated flow cell. […]

[3] = biological target: T3, pAPN transfected BHK-21 cells (Sus scrofa, UniProt P15145); test: Flow cytometry of FLUOS-labeled-F4 binding to pAPN transfected BHK-21 cells; format: cell-based, porcine
T3 construct: expressed in transfected cells; host or cells: BHK-21 (baby hamster kidney), G418-selected; gift
T3 sequence (P15145 1-963): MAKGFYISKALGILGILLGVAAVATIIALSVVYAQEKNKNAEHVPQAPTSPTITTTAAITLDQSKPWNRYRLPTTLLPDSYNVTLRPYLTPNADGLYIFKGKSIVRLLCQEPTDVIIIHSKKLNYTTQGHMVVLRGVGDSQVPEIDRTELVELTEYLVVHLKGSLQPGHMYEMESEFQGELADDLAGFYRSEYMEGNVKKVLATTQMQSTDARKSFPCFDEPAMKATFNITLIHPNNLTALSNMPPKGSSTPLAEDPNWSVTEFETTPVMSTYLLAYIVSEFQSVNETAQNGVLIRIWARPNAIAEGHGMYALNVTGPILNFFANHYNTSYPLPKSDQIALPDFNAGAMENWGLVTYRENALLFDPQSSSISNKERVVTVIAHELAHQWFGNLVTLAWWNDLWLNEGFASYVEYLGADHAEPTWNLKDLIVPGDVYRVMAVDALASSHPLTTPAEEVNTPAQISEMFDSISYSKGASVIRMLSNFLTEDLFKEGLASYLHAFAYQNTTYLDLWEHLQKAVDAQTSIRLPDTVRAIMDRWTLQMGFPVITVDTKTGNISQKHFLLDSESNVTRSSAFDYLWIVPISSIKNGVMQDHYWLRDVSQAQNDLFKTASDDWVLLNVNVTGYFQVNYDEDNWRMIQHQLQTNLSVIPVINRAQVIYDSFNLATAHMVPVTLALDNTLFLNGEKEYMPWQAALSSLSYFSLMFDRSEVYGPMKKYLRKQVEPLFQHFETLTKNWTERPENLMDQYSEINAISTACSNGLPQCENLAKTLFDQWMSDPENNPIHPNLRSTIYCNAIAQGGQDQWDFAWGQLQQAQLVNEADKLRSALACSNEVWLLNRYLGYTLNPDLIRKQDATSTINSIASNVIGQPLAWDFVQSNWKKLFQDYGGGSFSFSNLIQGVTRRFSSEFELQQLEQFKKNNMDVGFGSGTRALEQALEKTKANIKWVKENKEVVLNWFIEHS
Experimental: The BHK-21 and pAPN transfected BHK-21 cells were kindly gifted from Dr. Enjuanes and Dr. Delmas. The BHK-21 cells were cultured in DMEM with 5% FCS, 1% L-Glu, 1% P/S, 1% sodiumpyruvate (Gibco BRL, Life Technologies Inc., Paisley, Scotland), 1% non-essential amino acids (Gibco BRL, Life Technologies Inc., Paisley, Scotland). The pAPN transfected BHK-21 cells were grown in the same medium supplemented with 1.5 mg/ml geneticin G418 (Sigma-Aldrich Chemie GmbH, Steinheim, Germany).
To block the internalization of FLUOS-labeled-F4, 50 μM bestatin, an inhibitor of aminopeptidase N (Sigma-Aldrich Chemie GmbH, Steinheim, Germany) was incubated with BHK-21 or pAPN transfected BHK-21 cells 3 hours before addition of 25 μg FLUOS-labeled-F4. Afterwards, cells were washed 3 times with PBS. The BHK-21 or pAPN transfected BHK-21 cells were analyzed by flow cytometry with a FACScanto using CellDiva software (BD Biosciences). Ten thousand cells were analysed for each sample, and three parameters were used for further analysis: forward light scattering, sideward light scattering and green fluorescence. The median fluorescence intensity was used to measure the amount of FLUOS-labeled-F4 to the cells.

## [O-][I+3]([O-])([O-])O [NaIO4]
BBMV of F4R+ pigs; 25 mM NaIO4, 30 min
  binding of F4 to the receptor in BBMV of F4R+ pig: greatly reduced
BBMV of F4R+ pigs; periodate, two hours treatment
  F4ac binding to the BBMV of F4R+ pigs: abolishing; also recorded: abolished

## NC12CC3CC(CC(C3)C1)C2 [amantadine]
pAPN-BHK-21 cells
  effect on F4 internalization in pAPN-BHK cells: reduced the F4 internalization

## CC(C)C[C@H](NC(=O)[C@@H](O)[C@H](N)Cc1ccccc1)C(=O)O [bestatin]
[1]
  inhibition at 1000 µM: 4 ± 1.2%
  inhibition at 10000 µM: 10 ± 2%
F4R on enterocytes
  inhibition at 1000 µM: 22 ± 3.3%
  inhibition at 10000 µM: 72 ± 1%
[2]
  interaction of pre-incubated BBMV or enterocytes with WGA: No difference in interaction
[3]
  mean fluorescence intensity after treatment of bestatin: 1001±15
pAPN-BHK-21 cells; bestatin 50 μM, added 30 minutes before FLUOS-labeled F4, pAPN-BHK cells
  FLUOS-labeled F4 internalization: 18±5.3%

## C=C1[C@@H](C)[C@H]2[C@H](Cc3ccccc3)NC(=O)[C@]23[C@H](OC(C)=O)/C=C/[C@@](C)(O)C(=O)[C@@H](C)C/C=C/[C@H]3[C@@H]1O [cytochalasin D]
pAPN-BHK-21 cells
  effect on F4 internalization in pAPN-BHK cells: reduced the F4 internalization

## OC[C@H]1O[C@@](CO)(O[C@H]2O[C@H](CO)[C@@H](O)[C@H](O)[C@H]2O)[C@@H](O)[C@@H]1O [hypertonic sucrose, sucrose]
pAPN-BHK-21 cells
  effect on F4 internalization in pAPN-BHK cells: reduced the F4 internalization

## C/C1=C/C(=O)O[C@@H]2C[C@@H](CC[C@H](C)/C=C\CC1)O[C@@](O)([C@@H]1CSC(=O)N1)C2 [latrunculin B]
pAPN-BHK-21 cells
  effect on F4 internalization in pAPN-BHK cells: no effect

## dynamin inhibitory peptide
pAPN-BHK-21 cells
  effect on F4 internalization in pAPN-BHK cells: reduced the F4 internalization
